Tests used:
MDA-MB-231BR cells [1] = assay: BODIPY staining of lipid droplets; type: cell-based; details: 100 μM, 48 h
Protocol: Cells were treated with 5uM BODIPY 493/503 (Invitrogen) and NucBlue® Live reagent (Invitrogen) in PBS for 15 min, washed 2x with 1xPBS, fixed using 4% paraformaldehyde for 30 min at RT in the dark and washed in 1xPBS prior to mounting and imaging on EVOS FL (Life Technologies) using […] for BODIPY and DAPI channel for NucBlue.

hACSS1 = biological target: T1, hACSS1 (Homo sapiens, UniProt Q9NUB1); assay: SPR binding to immobilized hACSS1; details: single concentration 25μM injection
T1 construct: purchased MyBioSource (www.mybiosource.com)
T1 sequence (Q9NUB1 38-689): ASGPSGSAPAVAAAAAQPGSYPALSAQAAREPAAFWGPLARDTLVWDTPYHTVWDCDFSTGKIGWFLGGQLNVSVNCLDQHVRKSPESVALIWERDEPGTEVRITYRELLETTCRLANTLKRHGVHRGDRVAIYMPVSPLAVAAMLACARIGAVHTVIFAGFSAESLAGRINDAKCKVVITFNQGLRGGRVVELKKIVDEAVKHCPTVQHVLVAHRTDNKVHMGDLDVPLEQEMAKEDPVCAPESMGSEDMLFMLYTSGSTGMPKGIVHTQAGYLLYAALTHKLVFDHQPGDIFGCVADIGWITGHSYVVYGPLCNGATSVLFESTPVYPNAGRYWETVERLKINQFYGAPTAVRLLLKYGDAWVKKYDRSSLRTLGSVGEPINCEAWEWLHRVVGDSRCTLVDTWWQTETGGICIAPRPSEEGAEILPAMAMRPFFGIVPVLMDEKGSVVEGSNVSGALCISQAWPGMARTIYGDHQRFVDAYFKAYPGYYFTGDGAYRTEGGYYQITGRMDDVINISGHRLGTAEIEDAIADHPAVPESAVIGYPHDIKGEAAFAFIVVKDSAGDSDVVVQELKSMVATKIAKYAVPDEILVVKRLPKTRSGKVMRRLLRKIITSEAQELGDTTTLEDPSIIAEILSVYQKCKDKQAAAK
Protocol: All binding assays were performed on a ProteOn XPR36 SPR Protein Interaction Array System (Bio-Rad Laboratories, Hercules, CA, United States). The instrument temperature was set at 25°C for all kinetic analyses. ProteOn GLH sensor chips were preconditioned with two short pulses each (10 s) of 50 mM NaOH, 100 mM HCl, and 0.5% sodium […]. Then, the system was equilibrated with running buffer (1x PBS pH 7.4, 3% DMSO, and 0.005% polysorbate 20). The surface of a GLH sensor chip was activated with a 1:100 dilution of a 1:1 mixture of 1-ethyl-3-(3-dimethylaminopropyl) carbodiimide hydrochloride (0.2 M) and sulfo-N-hydroxysuccinimide (0.05 M). Immediately after chip activation, the human ACSS2 or hACSS1 proteins were prepared at a concentration of 10 μg/mL in 10 mM sodium acetate, pH 5.5, and injected across ligand flow channels for 5 min at a flow rate of 30 μL/min. Then, after unreacted protein had been washed out, excess active ester groups on the sensor surface were capped by a 5 min injection of 1M ethanolamine HCl (pH 8.0) at a flow rate of 5 μL/min. […] Data were analyzed using the ProteOn Manager Software version 3.0 (Bio-Rad). […]

MDA-MB-231BR cells [2] = assay: Intracranial MDA-MB-231BR tumor model in vivo; parameters: species or system Nu/Nu mice
Protocol: (§1) Intracranial injections were performed as previously described ([Ciraku et al., 2021]). Briefly, Nu/Nu or BalbC female 4–6 week old mice from Charles River Laboratories (Wilmington, MA, United States) were immobilized using the Just for Mice ™ Stereotaxic Frame (Harvard Apparatus, Holliston, MA, United States) and injected intracranially with 5 μL of a 20,000 cells/μL solution of MDA-MB-231BR or 4T1BR cells stably expressing luciferase. Mice were injected intraperitoneally with 30 mg/kg of Dluciferin solution (Caliper Life Sciences, Hopkinton, MA) and results analyzed using Living Image software (Caliper Life Sciences, Waltham, MA, United States). For in vivo analog trials, mice were weighed daily and injected intraperitoneally with 50 mg/kg of AD-8007. Mice were euthanized 3 weeks after injection following survivial or at the end of drug treatment at indiciated day. The animal study was reviewed and approved by the Institutional Animal Care and Use Committee.
(§2) Brains were dissected, fixed in 4% formalin and prepared for processing/sectioning/embedding/blocking to generate paraffin embedded slides. The slides containing brain metastatic tumors were deparaffinized by Xylene and subsequent rehydration was done by decreasing concentrations of ethanol-water mixture. Antigen retrieval was done by citrate buffer immersion and steaming the slides for 45 min. Tissue was treated with 200–400 ul 1% BSA+5% serum PBS solution for 1h. Primary incubation was done at 4 °C overnight using primary antibody anti-FasN (Cell Signaling Technologies, C20G5). Secondary antibody incubation was done for an hour at RT with HRP conjugated Anti-Rabbit Secondary antibody (Cell Signaling Technologies). at 1:100 dilution. For IHC the stain was developed using the DAB kit by Vectastain (Vector Labs, Burlingame, CA, United States). Finally, slides were mounted and imaged under a light microscope. H&E and Ki-67 staining were performed and assessed at TJU, Department of Pathology, Philadelphia, PA by board-certified pathologist.

4T1BR cells = assay: Intracranial 4T1BR tumor model in vivo; parameters: species or system BalbC mice
Protocol: as §1, §2

Q: With `N[C@H](C(=O)N1CCCC(c2ccccc2)(c2ccccc2)C1)C1CC1` [AD-8007] as the compound, how does the lipid droplet content (MDA-MB-231BR cells [1]) read?
A: The lipid droplet content was “significantly reduced lipid droplet content”.

Q: What about the “binding to hACSS1 (specificity)” value (hACSS1) of the same compound?
A: The value was “specifically bind ACSS2 and not the mitochondrial isoform hACSS1”.

Q: What about the “tumor burden (bioluminescence)” value (MDA-MB-231BR cells [2]; MDA-MB-231BR intracranial, 50 mg/kg daily, 14 days) of the same compound?
A: The value was “significantly reduced tumor burden”.

Q: And the “tumor burden and proliferation via H&E and Ki67 staining” value (MDA-MB-231BR cells [2]; MDA-MB-231BR intracranial, 14 days post treatment)?
A: The value was “reduction in tumor burden and proliferation”.

Q: And the survival (MDA-MB-231BR cells [2]; MDA-MB-231BR intracranial, drug withdrawn after treatment, Kaplan Meyer)?
A: The survival was “significantly extended surivial”.

Q: What about the “FASN staining in tumors” value (MDA-MB-231BR cells [2]; MDA-MB-231BR tumors, 14 days treatment, IHC) of the same compound?
A: Its value is “reduced expression of FASN staining”.

Q: What about the body weight (MDA-MB-231BR cells [2]; immunodeficient mice, 50 mg/kg daily, 14 days) of the same compound?
A: The body weight was “did not cause significant weight lost”.

Q: And the Ki-67 staining (4T1BR cells; 4T1BR intracranial, 10 days post treatment)?
A: The Ki-67 staining was “reduced Ki-67 staining”.

Q: What about the survival (4T1BR cells; 4T1BR intracranial, Kaplan Meyer) of the same compound?
A: The survival was “significantly extended survival”.

Q: And the “tumor burden (bioluminescence)” value (4T1BR cells; 4T1BR intracranial, immunecompetent mice, 10 days)?
A: The value was “reduced tumor burden”.

Q: What about the body weight (4T1BR cells; immunecompetent mice, 10 days) of the same compound?
A: Its body weight is “did not cause significant weight lost”.

Reference: PMC11137182, “Selective and brain-penetrant ACSS2 inhibitors target breast cancer brain metastatic cells” (Frontiers in Pharmacology, 2024)
